In patent US8552052B2, “Use of diindolylmethane-related indoles for the treatment and prevention of respiratory syncytial virus associated conditions” (BioResponse, L.L.C., priority 2004, dated 2013):
Entries after “also recorded” stand apart in the source; their conditions may differ.

Tests used:
RSV Long strain = experiment: Pulmonary viral assay (pfu in lung homogenate) in RSV infected BALB/c mice; assay type: in vivo
Protocol: The Following Experimental BALB/c Groups and Treatment Protocol Using DIM were Studied: • 1. RSV infected positive control group, infected with RSV and injected subcutaneously (SC) once daily with DMSO/Phosphate Buffered Saline (PBS) vehicle. • 2. RSV infected, Low dose Parenteral DIM group (15 mg/kg/day), injected SC once daily with DIM suspension • 3. RSV infected, High dose DIM Group (150 mg/kg/day), injected SC once daily with DIM suspension • 4. RSV infected, orally treated DIM group (250 mg/kg/day from absorption enhanced DIM [Example 6.1]), added to powdered feed • 5. Uninfected negative control group, nasally administered vehicle only, and injected subcutaneously (SC) once daily with DMSO/PBS vehicle
Animals, cells, and viruses. Pathogen-free 8-10 week old female BALB/c mice, weighing between 16 and 20 g, were purchased from Charles River Laboratories. All mice were housed in cages covered with barrier filters and are fed mouse chow and water ad libitum. HeLa cells are maintained in Eagle's minimal essential medium supplemented with glutamine, gentamicin, penicillin G, and 10% fetal bovine serum.
RSV stock. RSV Long strain was grown on HEp-2 monolayers (American Type Culture Collection, Manassas, Va.). The extracellular media containing liberated progeny virus was collected at about 70 hr. The virus was purified and concentrated by precipitation with polyethylene glycol (MW 8,000) and sucrose gradient centrifugation. The final preparation had infectious titer in the range of 10^8-10^9 pfu/ml and was stored frozen at −80° C. in small portions. All infectious viral titers (plaque forming units [pfu]) were determined by agarose plaque assay on HEp-2 monolayers with neutral red staining using standard procedures. Another suitable strain is the A2 strain of RSV (American Type Culture Collection).
Mouse treatment, infection and harvest. […]
Pulmonary viral assay and clinical measurements. […] Respiratory rates (breaths per min) were determined by counting over a period of 2-3 mins. […]

RSV A2 = experiment: RSV infection in cyclophosphamide pre-treated mice (pulmonary titer, histology); assay type: in vivo; conditions: cyclophosphomide pre-treated mice; vs vehicle treated placebo group
Source text: Another in vivo model of RSV infection has been developed using mice treated with cylphosphamide to induce immune deficiency and create a standardized receptive host for experimental infection (Sudo et al., 1999, Antivir Chem Chemother. 10:135-9). The technique provides for quantitation of pulmonary viral load following induced infection. This model can be used to assess the impact of daily intraperitoneal injections of DIM and/or an EGFR inhibitor drug (Gefitinib or Erlotinib) on in vivo RSV replication and induced pathology.
Alternatively, mice are treated intraperitoneally with 100 mg of cyclophosphamide (CYP) per kg of body weight 5 days before virus inoculation. The mice are weighed, anesthetized with sodium pentobarbital (50 mg/kg), and inoculated intranasally with approximately 10^5 PFU of RSV A2 in 50 μl (day 0). […]
Alternatively, the removed lungs are homogenized with glass homogenizers with a Teflon pestle (Ikemoto Scientific Technology Co., Ltd., Tokyo, Japan) in 4 ml of Hanks balanced salt solution supplemented with 0.218 M sucrose, 4.4 mM glutamate, 3.8 mM KH2PO4, and 3.2 mM K2HPO4 as described previously (Piazza et al., 1993, J. Virol. 67:1503-1510). […] The numbers of RSV plaques are counted.
Histologic methods and evaluation. […] The stained sections are coded by number and are evaluated blind as to the previous treatment. […]

c1ccc2c(Cc3c[nH]c4ccccc34)c[nH]c2c1 [DIM, 3,3′-diindolylmethane]
RSV growth in the lung / viral counts in lung tissue (RSV Long strain; DIM administered orally or parenterally, BALB/c mice): inhibit RSV growth in the lung; also recorded: significant reduction in viral counts in lung tissue | pulmonary viral count (RSV Long strain; SC administered DIM, 10 days pi, vs vehicle treated, RSV-infected controls, FIG. 4): significantly reduced pulmonary viral count | intrapulmonary replication of nasally administered RSV virus (RSV Long strain; oral 250 mg/kg/day and SC 15 and 150 mg/kg/day, 6 days post infection (pi), vs vehicle treated RSV-infected controls, FIG. 4): significantly reduced the intrapulmonary replication | pathology score on histologic examination (RSV A2): reduced pathology score | pulmonary RSV titers (RSV A2): reduction of pulmonary RSV titers
